Measured values reported in patent US20050271739A1, “Methods and compositions for accelerating alcohol metabolism” (priority 2004, published 2005).
“And” between values parts separate entries of the source, which are not always exact repeats. Equal entries are not always repeated.

Tests used:
[1] = system: alcohol dehydrogenase; experiment: Effect of hormonal compounds on enzyme activity of alcohol dehydrogenase; assay type: biochemical; parameters: Relative activity (%): concentration or dose not given beside the values; conditions: for Relative activity (%): Control = 100.0
[2] = system: alcohol dehydrogenase; experiment: Effect of thyroxine analogues on alcohol dehydrogenase activity; assay type: biochemical; conditions: for Relative Increase (%): None = 100
[3] = system: malate-aspartate shuttle in rabbit liver mitochondria; experiment: NADH oxidation by malate-aspartate shuttle in liver mitochondria; assay type: biochemical; conditions: for Effect on oxidation of NADH: added to rabbit liver mitochondria
[4] = system: aldehyde dehydrogenase; experiment: Thyroxine stimulation of aldehyde dehydrogenase activity; assay type: biochemical
From the text: Thyroxine has extremely high stimulating effect on the enzyme activity of alcohol dehydrogenases and aldehyde dehydrogenases. […] Some are as twice effective as thyroxine at the same concentration.

[5] = system: Alcohol dehydrogenase (from Sigma Aldrich Chemical Company); experiment: Alcohol dehydrogenase activity vs. NAD concentration; assay type: biochemical; conditions: Tris Buffer pH 8.5, ethanol 3% (V/V), ADH 5 units, 340 nm
Description: Testing conditions: 0.05 M Tris Buffer (pH=8.5); ethanol=3% (V/V); Alcohol dehydrogenase (from Sigma Aldrich Chemical Company): 5 units. ADH activity was determined by measuring absorbance change at 340 nm.

[6] = system: alcohol dehydrogenase prepared from yeast extract; experiment: NAD regeneration through coupling reactions with yeast extract ADH, INT and diaphorase; assay type: biochemical; conditions: 0.5 mM and 2.0 mM NAD, ethanol 1.0% (V/V), pH 7.5
Description: Phosphate buffer: 0.05 M (pH=7.5); ethanol: 1.0% (V/V). There was no absorbance change in the absence of NAD.
Phosphate buffer: 0.05 M (pH=7.5); INT: 12.7 mM; ethanol: 1.0% (V/V); NAD=2.0 mM; Diaphorase: 2 units.
In this example, the INT system was selected to illustrate the effectiveness of the regeneration of NAD by coupling compounds, since the reaction product, i.e., formazan, gives a maximum absorbance at 500 nm. Then the coupling reactions (see FIG. 6) can be directly quantified by spectrophotometric measurements.

[7] = system: oxidation of ethanol and acetaldehyde; experiment: Absorbance change of pig liver extract without INT (340 nm) and with INT (500 nm); assay type: biochemical; conditions: animal glandular extract, in the presence of INT
Description: Phosphate buffer: 0.05 M (pH=7.5); INT: 12.7 mM; ethanol: 1.0% (V/V); aldehyde: 17.6 mM. No NAD was added.
As described in testing method f, in the presence of diaphorases, INT is reduced to forzaman, while NADH is oxidized to NAD in a 1:1 mole stoichiometric ratio. Therefore, the increase in the absorbance at 500 nm is directly proportional to the concentration of forzaman.
FIG. 3 and Table 4 show the change of absorbance at 500 nm versus time. […] Since NAD and NADH are high very difficult to purify, the costs of use of external high purity NAD has been proven to be prohibitively high. The present invention provides a cost-effective method for preparing the enzyme-coenzyme formulation.

[8] = blood alcohol reading; cited from earlier work
[9] = system: blood alcohol; experiment: In vivo test of alcohol metabolism by dog (blood alcohol reading)
Description: Dog body weight: 13.9 kilograms. 42 grams of alcohol was administrated at time 0. ●—Control (i.e., no further treatment in the first 5 hours); ▪—10 grams pyruvate was administrated orally at 5 hours; ▴ 10 grams of alanine was administrated at 1.5 hour and then 5 hours.
In this example, the effectiveness of using compositions described above for accelerating alcohol metabolism was validated by in vivo tests with dogs. Six dogs (as described in Table 9) were used in the in vivo tests. The dogs were fasted 12 to 16 hours and then given 20% alcohol orally in a dose of 3 g/kg body weight. Approximately 1.5 hours were allowed for complete absorption and distribution of the alcohol. Blood samples were taken from the leg veins. The blood alcohol reading (BAR) was determined by measuring alcohol concentration in blood using the Sigma Aldrich alcohol assay method (Assay No. 333).

[10] = average of the dog tests, 5 or 10 g

Row | Compound | Relative activity (%) [1] | Absorbance Change (units/min @ 340 nm) ([2]; Dosage 17 μM) | Relative Increase (%) ([2]; Dosage 17 μM) | also measured
1 | C[C@]12CC[C@H]3[C@@H](CCC4=CC(=O)CC[C@@]43C)[C@@H]1CC[C@@H]2C(=O)CO [Deoxycorticosterone] | 115% |  |  | 
2 | O=C(O)CCc1cc(I)c(Oc2cc(I)c(O)c(I)c2)c(I)c1 [3,3,5,5′-tetraiodothyropropionic acid] |  | 0.75 units/min | 750% | 
3 | SodiumL-aspartate |  |  |  | Effect on oxidation of NADH [3]: substantially increases the oxidation of NADH
4 | O=C(O)Cc1cc(I)c(Oc2ccc(O)c(I)c2)c(I)c1 [3,3′5-triiodothyroacetic acid] |  | 0.715 units/min | 715% | 
5 | O=C(O)CCc1cc(I)c(Oc2ccc(O)c(I)c2)c(I)c1 [3,3′5-triiodothyropropionic acid] |  | 0.676 units/min | 676% | 
6 | N[C@@H](Cc1cc(Br)c(Oc2ccc(O)c(I)c2)c(Br)c1)C(=O)O [3,5-dibromo-3′-iodo-thyronine] |  | 0.48 units/min | 480% | 
7 | O=C([O-])CC(O)C(=O)[O-].[Na+].[Na+] (racemic) [malate, DL-Hydroxybutanedioic acid] |  |  |  | Effect on oxidation of NADH [3]: substantially increases the oxidation of NADH; Relative effectiveness in NADH oxidation ([3]; malate vs. aspartate): more effective than aspartate
8 | C[C@]12CCC(=O)C=C1CC[C@@H]1[C@@H]2C(=O)C[C@@]2(C)[C@H]1CC[C@]2(O)C(=O)CO [Cortisone] | 116% |  |  | 
9 | C[C@]12CC[C@@H](O)C[C@@H]1CC[C@@H]1[C@@H]2CC[C@]2(C)C(=O)CC[C@@H]12 [Androsterone] | 119% |  |  | 
10 | C[C@]12CCC(=O)C=C1CC[C@@H]1[C@@H]2CC[C@]2(C)C(=O)CC[C@@H]12 [4-Androsterone-3,17-dione] | 128% |  |  | 
11 | N[C@@H](Cc1cc(I)c(O)c(I)c1)C(=O)O [3,5-diiodo-l-thyrosine] |  |  |  | Absorbance Change (units/min @ 340 nm) ([2]; Dosage 170 μM): 0.256 units/min; Relative Increase (%) ([2]; Dosage 170 μM): 256%; Absorbance Change (units/min @ 340 nm) ([2]; Dosage 340 μM): 0.36 units/min; Relative Increase (%) ([2]; Dosage 340 μM): 360%
12 | N[C@@H](Cc1cc(I)c(Oc2cc(I)c(O)c(I)c2)c(I)c1)C(=O)O [L-thyroxine, L-Thyroxine] |  | 0.30 units/min | 300% | Increase of enzyme activity ([4]; as little as 2 μM): > 100%; Effect on alcohol and aldehyde dehydrogenases at high dosages ([4]; high dosages): becomes an inhibitor of the enzymes
13 | NC(=O)c1ccc[n+]([C@@H]2O[C@H](COP(=O)([O-])OP(=O)(O)OC[C@H]3O[C@@H](n4cnc5c(N)ncnc54)[C@H](O)[C@@H]3O)[C@@H](O)[C@H]2O)c1 [NAD, Nicotinamide Adenine Dinucleotide (NAD)] |  |  |  | Alcohol oxidation by alcohol dehydrogenase vs. NAD concentration [5]: increases with increasing NAD concentration; Absorbance on addition of NAD [6]: increases the absorbance
14 | CC12CCC(=O)C=C1CCC1C2CCC2(C)C(O)CCC12 (centres unmarked) [Testerone] | 137% |  |  | 
15 | O=C(O)CCc1ccc(Oc2cc(I)c(O)c(I)c2)c(I)c1 [3,3′5′-triiodothyropropionic acid] |  | 0.865 units/min | 865% | 
16 | C[C@]12C[C@H](O)[C@H]3[C@@H](CCC4=CC(=O)CC[C@@]43C)[C@@H]1CC[C@@H]2C(=O)CO [Corticosterone] | 112% |  |  | 
17 | C[C@]12CC[C@H](O)CC1=CC[C@@H]1[C@@H]2CC[C@]2(C)C(=O)CC[C@@H]12 [Dehydroepi-androsterone] | 200% |  |  | 
18 | O=[N+]([O-])c1ccc(-n2nc(-c3ccccc3)n[n+]2-c2ccc(I)cc2)cc1.[Cl-] [INT] |  |  |  | Effect of INT on oxidation of ethanol and acetaldehyde [7]: enhanced substantially
19 | CC(=O)[C@H]1CC[C@H]2[C@@H]3CCC4=CC(=O)CC[C@]4(C)[C@H]3CC[C@]12C [Progesterone] | 120% |  |  | 
20 | CCO [Alcohol, ethanol] |  |  |  | Anesthetic effects (BAR) [8]: (0.30-0.40%); Death; LD50 (BAR) [8]: (0.45-0.50%)
21 | NC(Cc1ccc(Oc2ccc(O)cc2)cc1)C(=O)O (racemic) [DL-thyronine] |  | 0.535 units/min | 535% | 
22 | CC/C(=C(/CC)c1ccc(O)cc1)c1ccc(O)cc1 [Diethylstilbestrol] |  |  |  | Increase of alcohol dehydrogenase activity ([1]; as low as 10 μM): more than 100%
23 | CC(=O)C(=O)[O-].[Na+] [sodium pyruvate, Pyruvic acid sodium salt] |  |  |  | BAR Reduction Rate after first dose, Average [9, 10]: 211.4 ppm/hr; BAR Reduction Rate after second dose, Average [9, 10]: 197.9 ppm/hr; BAR Reduction Rate after first dose ([9]; dog, oral, 5 g, first dosing at 266-410 min after ethanol 3 g/kg, sodium salt): 212 ppm/hr and 160 ppm/hr and 253 ppm/hr and 252 ppm/hr; BAR Reduction Rate after second dose ([9]; dog, oral, 10 g, second dosing at 310-464 min, sodium salt): 256 ppm/hr and 230 ppm/hr
